Experimental data taken from ChEMBL document CHEMBL4831550, “Fusidane-Type Antibiotics from the Marine-Derived Fungus Simplicillium sp. SCSIO 41513” (2021).
Converted amounts (≈) assume the structure as drawn.

What follows are molecules tested on Staphylococcus aureus (assay: Antibacterial activity against Staphylococcus aureus ATCC 6538 assessed as inhibition of bacterial growth incubated for 24 hrs by CLSI based microdilution method).
Assay type: functional

Question: For C/C(=C\CCC1=C2[C@H](C[C@@]3(C)[C@H]2C[C@@H](O)[C@H]2[C@@]4(C)CC[C@@H](O)[C@@H](C)[C@@H]4CC[C@@]23CO)OC1=O)C(=O)O, which MIC99.9 is on record?
Answer: Its MIC99.9 is greater than 100 µg/mL.

Question: C/C(=C\CCC1=C2[C@H](C[C@@]3(C)[C@H]2C[C@@H](O)[C@H]2[C@@]4(C)CC[C@@H](O)[C@@H](C)[C@@H]4C[C@@H](O)[C@@]23C)OC1=O)C(=O)O was tested. Which MIC99.9 did it give?
Answer: Its MIC99.9 is greater than 100 µg/mL.

Question: Which MIC99.9 does the source give for CC(=O)O[C@H]1C[C@@]2(C)[C@@H](C[C@@H](O)[C@H]3[C@@]4(C)CC[C@@H](O)[C@@H](C)[C@@H]4CC[C@@]32C)/C1=C(\CC/C=C(\C)CO)C(=O)O here?
Answer: Its MIC99.9 is 2.5 µg/mL (≈ 4.69 µM).

Question: With CC(=O)O[C@H]1C[C@@]2(C)[C@@H](CC(=O)[C@H]3[C@@]4(C)CC[C@@H](O)[C@@H](C)[C@@H]4CC[C@@]32C)/C1=C(\CCC=C(C)C)C(=O)O as the molecule, how does the MIC99.9 read?
Answer: The MIC99.9 was 0.078 µg/mL (≈ 0.152 µM).

Question: How did the MIC99.9 turn out when C/C(=C\CCC1=C2[C@H](C[C@@]3(C)[C@H]2C[C@@H](O)[C@H]2[C@@]4(C)CC[C@@H](O)[C@@H](C)[C@@H]4CC[C@@]23C)OC1=O)CO was run?
Answer: The MIC99.9 was greater than 100 µg/mL.

Question: For C/C(=C\CCC1=C2[C@H](C[C@@]3(C)[C@H]2C[C@@H](O)[C@H]2[C@@]4(C)CC[C@@H](O)[C@@H](CO)[C@@H]4CC[C@@]23C)OC1=O)C(=O)O, which MIC99.9 is on record?
Answer: Its MIC99.9 is greater than 100 µg/mL.
